Measurements as given in ChEMBL document CHEMBL4834418, “Pentaminomycins F and G, Nonribosomal Peptides Containing 2-Pyridylalanine” (2021).
Values after ≈ are worked out from the molar mass of the structure shown. Active and inactive are the calls of the source. No cut-off for these calls is given here. Starred links: 1 amine or outer side, 2 acyl side, 3 side chain; linkers in the order of their positions; H or OH if unused. Non-standard residues stand in square brackets, D forms with d. Residues, ends and D or L forms follow the SMILES beside them. X1 = N=C(N)N(O)CCC[C@H](N[*:1])C(=O)[*:2]

Columns and labels:
Escherichia coli = experiment: Antibacterial activity against Escherichia coli ATCC 25922 measured after overnight incubation; assay type: functional, organism-based
Acinetobacter baumannii = experiment: Antibacterial activity against Acinetobacter baumannii MB5973 measured after overnight incubation; assay type: functional
Klebsiella pneumoniae = experiment: Antibacterial activity against Klebsiella pneumoniae ATCC 700603 measured after overnight incubation; assay type: functional, organism-based
Pseudomonas aeruginosa = experiment: Antibacterial activity against Pseudomonas aeruginosa MB5919 measured after overnight incubation; assay type: functional, organism-based

Row | Structure (SMILES) | Activity (Escherichia coli) | MIC (Acinetobacter baumannii) [µg/mL] | Activity (Klebsiella pneumoniae) | Activity (Pseudomonas aeruginosa)
1 | CC(C)C[C@@H]1NC(=O)[C@@H](CC(C)C)NC(=O)[C@H](CCCN(O)C(=N)N)NC(=O)[C@H](Cc2c[nH]c3ccccc23)NC(=O)[C@@H](C(C)C)NC1=O (cyclo(L[dV]W[X1][dL])) | inactive | 16 (≈ 23.4 µM) | inactive | inactive
2 | CC(C)C[C@@H]1NC(=O)[C@@H](Cc2ccccc2)NC(=O)[C@H](CCCN(O)C(=N)N)NC(=O)[C@H](Cc2c[nH]c3ccccc23)NC(=O)[C@@H](C(C)C)NC1=O | inactive | 16 (≈ 22.3 µM) | inactive | inactive
